Experimental data from patent US20240270762A1, “PENICILLIN-BINDING PROTEIN INHIBITORS” (priority 2021, published 2024).
Values after ≈ are worked out from the molar mass of the structure shown.

How the values were obtained:
[1] = test system: P. aeruginosa CDC-0054; assay: microbe, parasite or virus in culture; format: cell-based; settings: Pseudomonas aeruginosa, CDC0054, read-out: Minimum inhibitory concentration, P. aeruginosa CDC-0054
[2] = target: T1, PBP3 from Pseudomonas aeruginosa (PAO1) (Pseudomonas aeruginosa, UniProt G3XD46); assay: Bocillin-FL fluorescence polarization competition binding, P. aeruginosa PBP3; settings: Binding affinity to P. aeruginosa PBP3; fluorescence polarization competition binding assay using Bocillin-FL; read-out: P. aeruginosa PBP3 Potency
T1 construct: made in house
Outline: (§1)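 Purified PBPs pre-incubated with inhibitor (E. coli PBP3 1.5 μM, 30 min; P. aeruginosa PBP3 0.75 μM, A. baumannii PBP1a 1 μM and PBP3 0.2 μM, 15 min), then Bocillin-FL 0.1 μM (0.05 μM for PBP1a) added; FP read up to 60 min. EC50 = concentration halving bound Bocillin-FL.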

[3] = target: T2, PBP3 from Acinetobacter baumannii (ATCC 19606) (Acinetobacter baumannii, UniProt A0ABX6CK25); assay: Bocillin-FL fluorescence polarization competition binding, A. baumannii PBP3; settings: fluorescence polarization competition binding assay using Bocillin-FL; read-out: A. baumannii PBP3 Potency
T2 sequence (A0ABX6CK25 64-610): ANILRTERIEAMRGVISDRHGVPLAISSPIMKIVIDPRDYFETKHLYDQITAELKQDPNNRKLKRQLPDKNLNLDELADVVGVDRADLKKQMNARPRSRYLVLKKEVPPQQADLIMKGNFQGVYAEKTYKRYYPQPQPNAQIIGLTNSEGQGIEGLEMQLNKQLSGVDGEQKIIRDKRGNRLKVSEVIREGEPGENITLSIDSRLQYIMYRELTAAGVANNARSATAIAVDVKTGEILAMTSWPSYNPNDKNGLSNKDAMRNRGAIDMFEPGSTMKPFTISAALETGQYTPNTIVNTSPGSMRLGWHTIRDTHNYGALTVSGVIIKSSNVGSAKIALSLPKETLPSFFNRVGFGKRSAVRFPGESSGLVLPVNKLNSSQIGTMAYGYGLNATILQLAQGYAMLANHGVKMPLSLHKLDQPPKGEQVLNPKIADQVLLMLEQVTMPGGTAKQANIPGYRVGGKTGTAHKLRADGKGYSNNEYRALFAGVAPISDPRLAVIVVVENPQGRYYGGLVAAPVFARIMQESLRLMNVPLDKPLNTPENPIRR
Outline: as §1

[4] = test system: A. baumannii ATCC 17978; assay: microbe, parasite or virus in culture; format: cell-based; settings: Acinetobacter baumannii, ATCC17978, read-out: MIC, A. baumannii ATCC 17978
[5] = test system: A. baumannii 1258916; assay: microbe, parasite or virus in culture; format: cell-based, Acinetobacter baumannii; settings: Acinetobacter baumannii, 1258916, read-out: MIC, A. baumannii 1258916
[6] = test system: P. aeruginosa CDC-0095; assay: microbe, parasite or virus in culture; format: cell-based; settings: Pseudomonas aeruginosa, CDC0095, read-out: Minimum inhibitory concentration, P. aeruginosa CDC-0095
[7] = test system: A. baumannii ATCC 19606; assay: microbe, parasite or virus in culture; format: cell-based; settings: Acinetobacter baumannii, ATCC19606, read-out: MIC, A. baumannii ATCC 19606
[8] = test system: P. aeruginosa CDC-0090; assay: microbe, parasite or virus in culture; format: cell-based; settings: Pseudomonas aeruginosa, CDC0090, read-out: Minimum inhibitory concentration, P. aeruginosa CDC-0090

T1 sequence (G3XD46 whole entry): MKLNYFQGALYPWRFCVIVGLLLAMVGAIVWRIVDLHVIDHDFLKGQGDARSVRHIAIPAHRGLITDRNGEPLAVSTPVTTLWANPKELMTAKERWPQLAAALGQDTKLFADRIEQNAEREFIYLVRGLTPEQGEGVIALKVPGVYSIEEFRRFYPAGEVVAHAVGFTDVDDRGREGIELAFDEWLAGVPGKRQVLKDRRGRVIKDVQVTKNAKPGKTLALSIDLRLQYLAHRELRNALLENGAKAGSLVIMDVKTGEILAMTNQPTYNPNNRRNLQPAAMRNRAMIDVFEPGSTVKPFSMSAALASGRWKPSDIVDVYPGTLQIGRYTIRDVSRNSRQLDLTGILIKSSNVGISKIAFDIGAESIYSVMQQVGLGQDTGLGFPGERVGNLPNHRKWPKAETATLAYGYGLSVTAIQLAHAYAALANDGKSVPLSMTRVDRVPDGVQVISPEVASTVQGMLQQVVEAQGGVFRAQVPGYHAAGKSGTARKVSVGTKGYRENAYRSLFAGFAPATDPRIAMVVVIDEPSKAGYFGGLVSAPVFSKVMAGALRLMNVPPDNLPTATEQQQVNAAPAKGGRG

SMILES	MIC [1]	IC50 [2]	IC50 [3]	MIC [4]	MIC [5]	MIC [6]	MIC [7]	MIC [8]
O=C(O)c1c(F)ccc2c1OB(O)[C@@H](NC(=O)[C@H](NC(=O)N1CCN(C3CCN(C(=O)Nc4c(F)ccc(O)c4Cl)CC3)C1=O)c1cc(F)c(O)c(O)c1Cl)C2 (single isomer, unassigned) [Example 455]	< 1 µg/mL	< 10 µM	< 10 µM	< 1 µg/mL	< 1 µg/mL	< 1 µg/mL	< 1 µg/mL	< 1 µg/mL
O=C(O)c1c(F)ccc2c1OB(O)[C@@H](NC(=O)[C@H](NC(=O)N1CCN(C3CCN(C(=O)c4ccc(O)cc4)CC3)C1=O)c1cc(F)c(O)c(O)c1Cl)C2 (single isomer, unassigned) [Example 463]	< 1 µg/mL	< 10 µM	< 10 µM	< 1 µg/mL	< 1 µg/mL	< 1 µg/mL	< 1 µg/mL	< 1 µg/mL
O=C(O)c1cccc2c1OB(O)[C@@H](NC(=O)C(NC(=O)N1CCN(Cc3cc(F)c(O)c(O)c3Cl)C(=O)C1=O)c1ccc(P(=O)(O)O)cc1)C2 (stereo partly drawn) [Example 164, (3R)-3-(2-(4-(2-chloro-5-fluoro-3,4-dihydroxybenzyl)-2,3-dioxopiperazine-1-carboxamido)-2-(4-phosphonophenyl)acetamido)-2-hydroxy-3,4-dihydro-2H-benzo[e][1,2]oxaborinine-8-carboxylic acid]	< 1 µg/mL	< 10 µM	< 10 µM	< 1 µg/mL	< 1 µg/mL	< 1 µg/mL	< 1 µg/mL	< 1 µg/mL
O=C(O)c1c(F)ccc2c1OB(O)[C@@H](NC(=O)[C@H](NC(=O)N1CCN(Cc3ccc(O)c(O)c3Cl)C(=O)C1=O)c1ccc(P(=O)(O)O)c(F)c1F)C2 [Example 166, (R)-3-((R)-2-(4-(2-chloro-3,4-dihydroxybenzyl)-2,3-dioxopiperazine-1-carboxamido)-2-(2,3-difluoro-4-phosphonophenyl)acetamido)-7-fluoro-2-hydroxy-3,4-dihydro-2H-benzo[e][1,2]oxaborinine-8-carboxylic acid]	< 1 µg/mL	< 10 µM	< 10 µM	< 1 µg/mL	< 1 µg/mL	< 1 µg/mL	< 1 µg/mL	2 to 4 µg/mL (≈ 2.59 to 5.19 µM)
O=C(NCCS(=O)(=O)N1CCN(C(=O)N[C@H](C(=O)N[C@H]2Cc3ccc(F)c(C(=O)O)c3OB2O)c2ccc(P(=O)(O)O)cc2)C1=O)c1ccc(O)c(O)c1Cl [Example 167, (R)-3-((S)-2-(3-((2-(2-chloro-3,4-dihydroxybenzamido)ethyl)sulfonyl)-2-oxoimidazolidine-1-carboxamido)-2-(4-phosphonophenyl)acetamido)-7-fluoro-2-hydroxy-3,4-dihydro-2H-benzo[e][1,2]oxaborinine-8-carboxylic acid]	> 128 µg/mL	50 to 250 µM	10 to 50 µM	32 to 64 µg/mL (≈ 38.7 to 77.3 µM)	> 128 µg/mL	> 128 µg/mL	> 128 µg/mL	> 128 µg/mL
O=C(O)c1c(F)ccc2c1OB(O)[C@@H](NC(=O)[C@H](NC(=O)N1CCN(C3CCN(C(=O)c4ccc(F)c(O)c4Cl)CC3)C1=O)c1cc(F)c(O)c(O)c1Cl)C2 [Example 438, (R)-3-((R)-2-(3-(1-(2-chloro-4-fluoro-3-hydroxybenzoyl)piperidin-4-yl)-2-oxoimidazolidine-1-carboxamido)-2-(2-chloro-5-fluoro-3,4-dihydroxyphenyl)acetamido)-7-fluoro-2-hydroxy-3,4-dihydro-2H-benzo[e][1,2]oxaborinine-8-carboxylic acid]	< 1 µg/mL	< 10 µM	< 10 µM	< 1 µg/mL	< 1 µg/mL	< 1 µg/mL	< 1 µg/mL	2 to 4 µg/mL (≈ 2.47 to 4.94 µM)
O=C(O)c1c(F)ccc2c1OB(O)[C@@H](NC(=O)[C@H](NC(=O)N1CCN(C3CCN(C(=O)Nc4cccc(O)c4)CC3)C1=O)c1cc(F)c(O)c(O)c1Cl)C2 [Example 445, (R)-3-((R)-2-(2-chloro-5-fluoro-3,4-dihydroxyphenyl)-2-(3-(1-((3-hydroxyphenyl)carbamoyl)piperidin-4-yl)-2-oxoimidazolidine-1-carboxamido)acetamido)-7-fluoro-2-hydroxy-3,4-dihydro-2H-benzo[e][1,2]oxaborinine-8-carboxylic acid]	< 1 µg/mL	< 10 µM	< 10 µM	< 1 µg/mL	< 1 µg/mL	< 1 µg/mL	< 1 µg/mL	< 1 µg/mL
O=C(O)c1c(F)ccc2c1OB(O)[C@@H](NC(=O)[C@H](NC(=O)N1CCN(C3CCN(C(=O)Nc4cccc(O)c4Cl)CC3)C1=O)c1cc(F)c(O)c(O)c1Cl)C2 [Example 447, (R)-3-((R)-2-(3-(1-((2-chloro-3-hydroxyphenyl)carbamoyl)piperidin-4-yl)-2-oxoimidazolidine-1-carboxamido)-2-(2-chloro-5-fluoro-3,4-dihydroxyphenyl)acetamido)-7-fluoro-2-hydroxy-3,4-dihydro-2H-benzo[e][1,2]oxaborinine-8-carboxylic acid]	< 1 µg/mL	< 10 µM	< 10 µM	< 1 µg/mL	< 1 µg/mL	< 1 µg/mL	< 1 µg/mL	< 1 µg/mL
O=C(O)c1c(F)ccc2c1OB(O)[C@@H](NC(=O)C(NC(=O)N1CCN(C3CCN(C(=O)Nc4ccc(F)c(O)c4F)CC3)C1=O)c1cc(F)c(O)c(O)c1Cl)C2 (stereo partly drawn) [Example 452, (3R)-3-(2-(2-chloro-5-fluoro-3,4-dihydroxyphenyl)-2-(3-(1-((2,4-difluoro-3-hydroxyphenyl)carbamoyl)piperidin-4-yl)-2-oxoimidazolidine-1-carboxamido)acetamido)-7-fluoro-2-hydroxy-3,4-dihydro-2H-benzo[e][1,2]oxaborinine-8-carboxylic acid]	< 1 µg/mL	< 10 µM	< 10 µM	< 1 µg/mL	< 1 µg/mL	2 to 4 µg/mL (≈ 2.47 to 4.95 µM)	< 1 µg/mL	< 1 µg/mL
O=C(O)c1c(F)ccc2c1OB(O)[C@@H](NC(=O)[C@H](NC(=O)N1CCN(C3CCN(C(=O)Nc4cc(O)cc(O)c4)CC3)C1=O)c1cc(F)c(O)c(O)c1Cl)C2 [Example 456, (R)-3-((R)-2-(2-chloro-5-fluoro-3,4-dihydroxyphenyl)-2-(3-(1-((3,5-dihydroxyphenyl)carbamoyl)piperidin-4-yl)-2-oxoimidazolidine-1-carboxamido)acetamido)-7-fluoro-2-hydroxy-3,4-dihydro-2H-benzo[e][1,2]oxaborinine-8-carboxylic acid]	< 1 µg/mL	< 10 µM	< 10 µM	< 1 µg/mL	< 1 µg/mL	< 1 µg/mL	< 1 µg/mL	< 1 µg/mL
O=C(O)c1c(F)ccc2c1OB(O)[C@@H](NC(=O)[C@H](NC(=O)N1CCN(C3CCN(C(=O)c4cccnc4)CC3)C1=O)c1cc(F)c(O)c(O)c1Cl)C2 [Example 460, (R)-3-((R)-2-(2-chloro-5-fluoro-3,4-dihydroxyphenyl)-2-(3-(1-nicotinoylpiperidin-4-yl)-2-oxoimidazolidine-1-carboxamido)acetamido)-7-fluoro-2-hydroxy-3,4-dihydro-2H-benzo[e][1,2]oxaborinine-8-carboxylic acid]	< 1 µg/mL	< 10 µM	< 10 µM	< 1 µg/mL	< 1 µg/mL	< 1 µg/mL	< 1 µg/mL	< 1 µg/mL
O=C(O)c1c(F)ccc2c1OB(O)[C@@H](NC(=O)[C@H](NC(=O)N1CCN(C3CCN(C(=O)c4ccncc4)CC3)C1=O)c1cc(F)c(O)c(O)c1Cl)C2 [Example 461, (R)-3-((R)-2-(2-chloro-5-fluoro-3,4-dihydroxyphenyl)-2-(3-(1-isonicotinoylpiperidin-4-yl)-2-oxoimidazolidine-1-carboxamido)acetamido)-7-fluoro-2-hydroxy-3,4-dihydro-2H-benzo[e][1,2]oxaborinine-8-carboxylic acid]	< 1 µg/mL	< 10 µM	< 10 µM	< 1 µg/mL	< 1 µg/mL	< 1 µg/mL	< 1 µg/mL	< 1 µg/mL
